From the supplement of paper PMC10331698
± gives the standard deviation of the averaged measurements.

Tests used:
Assay in all cases: level (log10 ratio to DMSO vehicle control); higher = higher biomarker level / cell amount than vehicle control
[1] = compound: C=CC(=O)OCCC(F)(F)C(F)(F)C(F)(F)C(F)(F)C(F)(F)C(F)(F)C(F)(F)C(F)(F)F [8:2 Fluorotelomer acrylate]; details: in DMSO
Protocol: (§1)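 BioMAP Diversity Plus panel of 12 human primary cell co-culture systems (3C, 4H, LPS, SAg, BT, BF4T, BE3C, CASM3C, HDF3CGF, KF3CT, MyoF, Mphg). Compounds were added 1 h before stimulation and left for 24 h (MyoF 48 h; BT 72 h for soluble read-outs or 6 d for IgG). Biomarkers were read by ELISA, cytotoxicity by SRB, PBMC viability and proliferation by Alamar Blue. Each well value was divided by the mean of 8 DMSO control wells on the same plate and log10 transformed; duplicate blinded samples were tested at 4 concentrations.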

[2] = compound: O=C(O)C(F)(F)C(F)(F)C(F)(F)C(F)(F)C(F)(F)C(F)(F)C(F)(F)F [Ammonium perfluorooctanoate]; details: in DMSO
Protocol: as §1

[3] = compound: OCCC(F)(F)C(F)(F)C(F)(F)C(F)(F)C(F)(F)C(F)(F)C(F)(F)C(F)(F)F [8:2 Fluorotelomer alcohol]; details: 6700 nM; in DMSO
Protocol: as §1

[4] = compound: O=C(O)C(F)(F)C(F)(F)C(=O)O [Tetrafluorosuccinic acid]; details: in DMSO
Protocol: as §1

[5] = compound: O=S(=O)(OCC(F)(F)F)C(F)(F)C(F)(F)C(F)(F)C(F)(F)F [2,2,2-Trifluoroethyl perfluorobutanesulfonate]; details: in DMSO
Protocol: as §1

[6] = compound: O=C(O)C(F)(F)C(F)(F)C(F)(F)C(F)(F)C(F)(F)C(F)(F)C(F)(F)F [Perfluorooctanoic acid]; details: in DMSO
Protocol: as §1

[7] = compound: OCC(F)(F)C(F)(F)C(F)(F)C(F)(F)C(F)(F)C(F)(F)C(F)(F)C(F)(F)C(F)(F)C(F)(F)C(F)(F)F [11:1 Fluorotelomer alcohol]; details: in DMSO
Protocol: as §1

Test System	level (log10) ([1]; 6700 nM)	level (log10) ([1]; 20000 nM)	level (log10) ([1]; 60000 nM)	level (log10) ([2]; 6700 nM)	level (log10) ([2]; 20000 nM)	level (log10) ([2]; 60000 nM)	level (log10) [3]	level (log10) ([4]; 6700 nM)	level (log10) ([4]; 20000 nM)	level (log10) ([4]; 60000 nM)	level (log10) ([5]; 6700 nM)	level (log10) ([5]; 20000 nM)	level (log10) ([5]; 60000 nM)	level (log10) ([6]; 6700 nM)	level (log10) ([6]; 20000 nM)	level (log10) ([6]; 60000 nM)	level (log10) ([7]; 1100 nM)	level (log10) ([7]; 3300 nM)	level (log10) ([7]; 10000 nM)
HDF3CGF:TIMP-1	-0.03 ± 0.02	-0.0265 ± 0.022	-0.011 ± 0.061	0.013 ± 0.0028	0.0065 ± 0.016	0.008 ± 0.02	-0.013 ± 0.0042	-0.05 ± 0.023	-0.017 ± 0.0042	-0.0155 ± 0.035	-0.0095 ± 0.042	0.039 ± 0.0042	0.0325 ± 0.021	-0.015 ± 0.034	-0.029 ± 0.0099	0.0155 ± 0.00071	-0.029 ± 0.024	-0.07 ± 0.0085	-0.033 ± 0.016
MyoF:Collagen IV	-0.022 ± 0.0042	-0.002 ± 0.0057	-0.0135 ± 0.036	0.06 ± 0.0099	0.0745 ± 0.0035	0.225 ± 0.05	0.0065 ± 0.0021	0.008	0.003 ± 0.0099	0.0115 ± 0.015	-0.0175 ± 0.044	-0.014 ± 0.038	0.0205 ± 0.056	0.011 ± 0.014	0.051 ± 0.033	0.214 ± 0.03	-0.0365 ± 0.05	-0.0255 ± 0.028	-0.01 ± 0.028
3C:CD142/Tissue Factor	0.0065 ± 0.029	0.0115 ± 0.0035	0.0155 ± 0.021	-0.0145 ± 0.0035	-0.0045 ± 0.0021	-0.036 ± 0.017	0.0035 ± 0.14	0.001 ± 0.042	0.0025 ± 0.0064	0.006 ± 0.023	0.0285 ± 0.046	0.011 ± 0.037	-0.018 ± 0.034	0.0395 ± 0.057	0.0135 ± 0.071	0.049 ± 0.011	0.028 ± 0.024	0.074 ± 0.034	0.0865 ± 0.0092
KF3CT:CXCL8/IL-8	-0.011 ± 0.0014	-0.047 ± 0.076	-0.117 ± 0.053	0.0075 ± 0.032	0.036 ± 0.018	0.034 ± 0.02	0.0035 ± 0.0035	-0.029 ± 0.011	-0.031 ± 0.0042	-0.0175 ± 0.026	-0.0165 ± 0.0035	0.0045 ± 0.00071	0.017 ± 0.0057	0.015 ± 0.0057	0.0225 ± 0.0064	-0.011 ± 0.0099	0 ± 0.013	0.015	0.014 ± 0.025
lMphg:SRB-Mphg	-0.026 ± 0.0014	-0.012 ± 0.021	0.003 ± 0.037	-0.0045 ± 0.0092	0.006 ± 0.0057	-0.007 ± 0.02	-0.015 ± 0.03	-0.0035 ± 0.015	-0.0075 ± 0.013	-0.013 ± 0.016	-0.005 ± 0.0071	-0.019 ± 0.014	-0.024 ± 0.031	-0.0085 ± 0.013	0.0005 ± 0.005	-0.002 ± 0.03	-0.039 ± 0.0014	-0.105 ± 0.0085	-0.205 ± 0.0085
BE3C:Keratin 8/18	-0.013 ± 0.0014	-0.014 ± 0.0085	0.0085 ± 0.033	-0.0195 ± 0.012	-0.0215 ± 0.012	-0.0225 ± 0.0035	-0.0185 ± 0.012	0.0225 ± 0.012	0.009 ± 0.013	0.0165 ± 0.00071	-0.0055 ± 0.005	-0.0075 ± 0.015	-0.009 ± 0.0085	-0.0145 ± 0.0064	-0.01 ± 0.0014	0.0065 ± 0.028	0.0065 ± 0.04	-0.016 ± 0.035	0.018 ± 0.025
HDF3CGF:CXCL11/I-TAC	-0.007 ± 0.0057	-0.0095 ± 0.0021	-0.0105 ± 0.028	0.014 ± 0.0014	0.037 ± 0.02	0.0555 ± 0.033	-0.04 ± 0.024	-0.03 ± 0.035	-0.0215 ± 0.005	-0.0565 ± 0.071	-0.014 ± 0.016	-0.0495 ± 0.00071	-0.137 ± 0.016	-0.0205 ± 0.011	-0.016 ± 0.027	-0.007 ± 0.024	-0.0245 ± 0.03	-0.0655 ± 0.005	-0.0155 ± 0.04
lMphg:CD62E/E-Selectin	0.019 ± 0.038	0.0215 ± 0.0064	0.041 ± 0.034	-0.0205 ± 0.0021	-0.003 ± 0.058	0.0025 ± 0.022	0.024 ± 0.023	-0.0075 ± 0.032	0.0085 ± 0.011	0.032 ± 0.013	0.02 ± 0.031	0.0255 ± 0.033	-0.0435 ± 0.0064	-0.007 ± 0.025	0.013	0.052 ± 0.017	0.0715 ± 0.011	0.084 ± 0.024	0.118 ± 0.012
CASM3C:Proliferation	0.006 ± 0.021	-0.05 ± 0.013	-0.045 ± 0.037	0.0125 ± 0.018	-0.007 ± 0.045	-0.021 ± 0.0071	0.003 ± 0.017	0.001 ± 0.0057	-0.053 ± 0.016	-0.0085 ± 0.06	0.0265 ± 0.0064	-0.018 ± 0.027	-0.026 ± 0.03	-0.023 ± 0.051	-0.0165 ± 0.032	0.0105 ± 0.0064	0.0145 ± 0.0078	-0.0185 ± 0.005	0.0565 ± 0.0092
lMphg:CCL3/MIP-1alpha	0.056 ± 0.011	0.0485 ± 0.047	0.0325 ± 0.025	0.003 ± 0.018	0.013 ± 0.024	0.0395 ± 0.029	0.079 ± 0.011	-0.0145 ± 0.025	-0.0145 ± 0.00071	-0.001 ± 0.023	-0.025 ± 0.052	-0.078 ± 0.054	-0.119 ± 0.018	0.039 ± 0.033	0.0295 ± 0.066	-0.0365 ± 0.067	0.014 ± 0.011	-0.0165 ± 0.026	-0.06 ± 0.021
CASM3C:CD141/Thrombomodulin	0.0125 ± 0.011	-0.005 ± 0.0071	0.009 ± 0.013	0.014 ± 0.035	0.0205 ± 0.036	0.0465 ± 0.032	0.0135 ± 0.0021	-0.0015 ± 0.012	0.013 ± 0.023	-0.0265 ± 0.025	-0.0045 ± 0.0021	0.008 ± 0.037	0.0045 ± 0.0064	0.0125 ± 0.0092	0.007 ± 0.016	-0.0115 ± 0.0064	-0.0155 ± 0.012	-0.012 ± 0.025	-0.0155 ± 0.005
BE3C:tPA	-0.034 ± 0.02	-0.051 ± 0.0042	-0.002 ± 0.04	-0.029 ± 0.045	-0.015 ± 0.02	-0.07 ± 0.0085	-0.064 ± 0.013	-0.037 ± 0.023	-0.0505 ± 0.026	-0.0365 ± 0.022	0.0045 ± 0.021	0.028 ± 0.016	0.085 ± 0.031	-0.0515 ± 0.025	-0.0285 ± 0.036	-0.038 ± 0.0085	-0.0125 ± 0.011	-0.033 ± 0.011	-0.008 ± 0.016
HDF3CGF:Collagen I	-0.025 ± 0.0028	-0.008 ± 0.0071	0.0325 ± 0.018	0.0285 ± 0.019	0.01 ± 0.021	-0.0645 ± 0.088	-0.022 ± 0.0042	-0.0515 ± 0.025	-0.0235 ± 0.018	-0.0305 ± 0.029	-0.0325 ± 0.016	-0.0635 ± 0.04	-0.047 ± 0.028	-0.025 ± 0.0028	0.0005 ± 0.016	0.0395 ± 0.054	0.438 ± 0.0099	0.471 ± 0.03	0.394 ± 0.062
HDF3CGF:CCL2/MCP-1	-0.03 ± 0.017	-0.042 ± 0.031	-0.0805 ± 0.044	-0.0285 ± 0.0092	-0.0605 ± 0.0078	-0.068 ± 0.014	-0.0175 ± 0.032	-0.035 ± 0.0099	-0.0415 ± 0.0064	-0.0275 ± 0.012	-0.0125 ± 0.021	0.0255 ± 0.021	-0.0205 ± 0.033	-0.0345 ± 0.044	-0.0305 ± 0.04	-0.0085 ± 0.057	0.0305 ± 0.033	0.0075 ± 0.0064	0.0095 ± 0.015
